Assay results from ChEMBL document CHEMBL1201862, “PubChem BioAssay data set” (2004).
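Values below derive from 48-hour exposures of cells grown in 96-well plates, with endpoints linearly interpolated between the two concentrations bracketing the appropriate inhibition level. GI50 is the concentration that inhibits growth by half.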 Active and inactive are the calls of the source. Rule as the data show it: active = GI50 up to about 1.1 µM and inactive = higher.

Legend:
Assay in all cases: NCI tumour cell line growth inhibition, 48 h
786-0 = test system: 786-0
A498 = test system: A498
A549 = test system: A549
COLO 205 = test system: COLO 205
HCT-116 = test system: HCT-116
HT-29 = test system: HT-29
IGROV-1 = test system: IGROV-1
MCF7 = test system: MCF7
MDA-MB-435 = test system: MDA-MB-435
MOLT-4 = test system: MOLT-4
NCI-H226 = test system: NCI-H226
NCI/ADR-RES = test system: NCI/ADR-RES
OVCAR-4 = test system: OVCAR-4
RXF 393 = test system: RXF 393
SF-295 = test system: SF-295
SNB-19 = test system: SNB-19
SW-620 = test system: SW-620
U-251 = test system: U-251
UACC-257 = test system: UACC-257

| SMILES | GI50 (786-0) | GI50 (A498) | GI50 (A549) | GI50 (COLO 205) | GI50 (HCT-116) | GI50 (HT-29) | GI50 (IGROV-1) | GI50 (MCF7) | GI50 (MDA-MB-435) | GI50 (MOLT-4) | GI50 (NCI-H226) | GI50 (NCI/ADR-RES) | GI50 (OVCAR-4) | GI50 (RXF 393) | GI50 (SF-295) | GI50 (SNB-19) | GI50 (SW-620) | GI50 (U-251) | GI50 (UACC-257) |
| --- | --- | --- | --- | --- | --- | --- | --- | --- | --- | --- | --- | --- | --- | --- | --- | --- | --- | --- | --- |
| Nc1nc(NCC2(CO)CC(CCc3ccccc3)C2)cc(=O)[nH]1 (stereo unspecified) | > 100 µM (inactive) | > 100 µM (inactive) | > 100 µM (inactive) | > 100 µM (inactive) | > 100 µM (inactive) | > 100 µM (inactive) | > 100 µM (inactive) | > 100 µM (inactive) | > 100 µM (inactive) | 55.2 µM (inactive) | > 100 µM (inactive) | > 100 µM (inactive) | > 100 µM (inactive) | > 100 µM (inactive) | > 100 µM (inactive) | > 100 µM (inactive) | > 100 µM (inactive) | > 100 µM (inactive) | > 100 µM (inactive) |
| COC(=O)[C@]1(C)CCC[C@@]2(C)[C@@H]3C[C@@H]4[C@H]5C[C@@]3(CC[C@@H]21)C[C@@]45C | 16.1 µM (inactive) | 17.2 µM (inactive) | 14.1 µM (inactive) | 20.5 µM (inactive) | 20 µM (inactive) | 14.5 µM (inactive) | 19.3 µM (inactive) | 14.9 µM (inactive) | 18.3 µM (inactive) | 14.5 µM (inactive) | 15.8 µM (inactive) | 15.7 µM (inactive) | 13.8 µM (inactive) | 17.1 µM (inactive) | 15.2 µM (inactive) | 13.9 µM (inactive) | 24.3 µM (inactive) | 24 µM (inactive) | 15.4 µM (inactive) |
| C=C(C)C(=O)OC1CC2(C)OC(=CC2=O)C(C)CC2OC(=O)C(=C)C12 (stereo unspecified) | 3.24 µM (inactive) | 15.2 µM (inactive) | 18.9 µM (inactive) | 1.23 µM (inactive) | 1.75 µM (inactive) | 3.92 µM (inactive) | 8.85 µM (inactive) | 2.78 µM (inactive) | 4.13 µM (inactive) | 2.9 µM (inactive) | 19.1 µM (inactive) | 8.95 µM (inactive) | 3.99 µM (inactive) | 1.19 µM (inactive) | 19 µM (inactive) | 21.4 µM (inactive) | 2.79 µM (inactive) | 16.5 µM (inactive) | 12.3 µM (inactive) |
| O=C(O)c1[nH]c2c([N+](=O)[O-])cc([N+](=O)[O-])cc2c1C(=O)O | > 100 µM (inactive) | > 100 µM (inactive) | > 100 µM (inactive) | > 100 µM (inactive) | > 100 µM (inactive) | > 100 µM (inactive) | > 100 µM (inactive) | > 100 µM (inactive) | 52.1 µM (inactive) | > 100 µM (inactive) | > 100 µM (inactive) | > 100 µM (inactive) | > 100 µM (inactive) | > 100 µM (inactive) | > 100 µM (inactive) | > 100 µM (inactive) | > 100 µM (inactive) | > 100 µM (inactive) | > 100 µM (inactive) |
| CCN(CC)c1ccc2c(c1)OC(=O)C(c1nnc(-c3ccc([N+](=O)[O-])cc3)o1)C2 (stereo unspecified) | > 100 µM (inactive) | > 100 µM (inactive) | > 100 µM (inactive) | > 100 µM (inactive) | > 100 µM (inactive) | > 100 µM (inactive) | > 100 µM (inactive) | > 100 µM (inactive) | > 100 µM (inactive) | > 100 µM (inactive) | > 100 µM (inactive) | > 100 µM (inactive) | > 100 µM (inactive) | > 100 µM (inactive) | > 100 µM (inactive) | > 100 µM (inactive) | > 100 µM (inactive) | > 100 µM (inactive) | > 100 µM (inactive) |
| Cc1ccsc1/C=N/Nc1ccc2ccccc2n1 | 30.8 µM (inactive) | 7.76 µM (inactive) | 7.43 µM (inactive) | 27.7 µM (inactive) | 28.1 µM (inactive) | 12.5 µM (inactive) | 8.26 µM (inactive) | 11.4 µM (inactive) | 56.5 µM (inactive) | 8.04 µM (inactive) | 35.9 µM (inactive) | 30.5 µM (inactive) | 29.7 µM (inactive) | 30.5 µM (inactive) | 11.1 µM (inactive) | 39.4 µM (inactive) | 85.1 µM (inactive) | 49 µM (inactive) | 6.12 µM (inactive) |
| NCC(O)CSP(=O)(O)O (stereo unspecified) | > 100 µM (inactive) | > 100 µM (inactive) | > 100 µM (inactive) | > 100 µM (inactive) | > 100 µM (inactive) | > 100 µM (inactive) | > 100 µM (inactive) | > 100 µM (inactive) | > 100 µM (inactive) | > 100 µM (inactive) | > 100 µM (inactive) | > 100 µM (inactive) | > 100 µM (inactive) | > 100 µM (inactive) | > 100 µM (inactive) | > 100 µM (inactive) | > 100 µM (inactive) | > 100 µM (inactive) | > 100 µM (inactive) |
| O=C1OC(c2ccc(O)c(-c3ccccc3)c2)(c2ccc(O)c(-c3ccccc3)c2)c2c(Cl)c(Cl)c(Cl)c(Cl)c21 | > 100 µM (inactive) | > 100 µM (inactive) | > 100 µM (inactive) | > 100 µM (inactive) | > 100 µM (inactive) | > 100 µM (inactive) | > 100 µM (inactive) | > 100 µM (inactive) | > 100 µM (inactive) | > 100 µM (inactive) | > 100 µM (inactive) | > 100 µM (inactive) | > 100 µM (inactive) | > 100 µM (inactive) | > 100 µM (inactive) | > 100 µM (inactive) | > 100 µM (inactive) | > 100 µM (inactive) | > 100 µM (inactive) |
| CC[C@@H](/C=C\CCC1(C[C@@H](N)CCC=C(C)C)OCCO1)O[Si](C(C)C)(C(C)C)C(C)C | 17.4 µM (inactive) | 18.2 µM (inactive) | 18.2 µM (inactive) | 13.6 µM (inactive) | 17.1 µM (inactive) | 17.3 µM (inactive) | 15.8 µM (inactive) | 16.3 µM (inactive) | 18.4 µM (inactive) | 17.6 µM (inactive) | 17.4 µM (inactive) | 16.8 µM (inactive) | 19.1 µM (inactive) | 19.4 µM (inactive) | 19 µM (inactive) | 18.5 µM (inactive) | 21.7 µM (inactive) | 19.9 µM (inactive) | 19.3 µM (inactive) |
| CCOC(=O)c1ccc(NC(=O)O/N=C(/Cl)C(C)C)cc1 | 6.67 µM (inactive) | 14.7 µM (inactive) | 21.7 µM (inactive) | 2.42 µM (inactive) | 8.05 µM (inactive) | 20.7 µM (inactive) | 19.4 µM (inactive) | 1.98 µM (inactive) | 16 µM (inactive) | 1.92 µM (inactive) | 24.4 µM (inactive) | 19 µM (inactive) | 14.5 µM (inactive) | 16.3 µM (inactive) | 19.1 µM (inactive) | 24 µM (inactive) | 2.09 µM (inactive) | 19.1 µM (inactive) | 16.9 µM (inactive) |
| CCOc1cccc(-c2cc(O)c3cc4c(cc3n2)OCO4)c1 | 0.197 µM (active) | 78.9 µM (inactive) | 0.378 µM (active) | 0.206 µM (active) | 0.0942 µM (active) | 0.221 µM (active) | 0.548 µM (active) | 0.673 µM (active) | 0.0164 µM (active) | 0.296 µM (active) | 0.438 µM (active) | 0.0828 µM (active) | 82 µM (inactive) | 0.0953 µM (active) | 0.0735 µM (active) | 0.321 µM (active) | 0.0573 µM (active) | 0.0619 µM (active) | 1.95 µM (inactive) |
| O=[N+]([O-])c1cccc(Cl)c1Oc1ccc(S(=O)(=O)N/C(=N\O)Nc2ccc(Cl)cc2)cc1 | 12.9 µM (inactive) | 14.2 µM (inactive) | 13.9 µM (inactive) | 17.1 µM (inactive) | 12.5 µM (inactive) | 17.1 µM (inactive) | 15.1 µM (inactive) | 13.3 µM (inactive) | 14.3 µM (inactive) | 3.11 µM (inactive) | 21.2 µM (inactive) | 20.3 µM (inactive) | 7.1 µM (inactive) | 13.8 µM (inactive) | 16.1 µM (inactive) | 16.2 µM (inactive) | 15.1 µM (inactive) | 13.6 µM (inactive) | 11.1 µM (inactive) |
| COc1ccc(N2C=Nn3c(nc4sc5c(c4c3=O)CCCC5)C2)cc1 | 5.77 µM (inactive) | 14 µM (inactive) | > 100 µM (inactive) | > 100 µM (inactive) | 19.4 µM (inactive) | > 100 µM (inactive) | > 100 µM (inactive) | > 100 µM (inactive) | > 100 µM (inactive) | > 100 µM (inactive) | 84.3 µM (inactive) | > 100 µM (inactive) | > 100 µM (inactive) | 15.4 µM (inactive) | 18.3 µM (inactive) | 28.2 µM (inactive) | > 100 µM (inactive) | 16.7 µM (inactive) | 56.1 µM (inactive) |
| COc1cc(C2c3cc4c(cc3OC(N3CCCCC3)C2C)OCO4)cc(OC)c1O (stereo unspecified) | 8.77 µM (inactive) | 10.9 µM (inactive) | 10.7 µM (inactive) | 17.7 µM (inactive) | 4.59 µM (inactive) | 8.75 µM (inactive) | 9.98 µM (inactive) | 5.33 µM (inactive) | 2.21 µM (inactive) | 6.12 µM (inactive) | 21.9 µM (inactive) | 4.57 µM (inactive) | 17.3 µM (inactive) | 14.5 µM (inactive) | 3.7 µM (inactive) | 16.3 µM (inactive) | 5.31 µM (inactive) | 9.71 µM (inactive) | 13.4 µM (inactive) |
